Columns and labels:
[1] = system: MV4;11 cells; details: at 0.1 μM, 6 hours exposure
Procedure: (§1) This study was carried out on three human tumour cell lines: • 1 small-cell lung carcinoma, H146, • 1 acute myeloid leukaemia, MV4; 11, • 1 leukaemia, RS4; 11.
(§2) The cell lines are cultured in an incubator at 37° C. in the presence of 5% CO2. The H146 and RS4;11 cells are cultured in complete RPMI 1640 medium containing 10% foetal calf serum, 2 mM of glutamine, 50 units/ml of penicillin, 50 μg/ml of streptomycin and 10 mM of Hepes buffer, pH=7.4.
(§3) The cells are distributed onto 6-well plates and exposed to the test compounds for 6 hours. They are then harvested and lysed and the caspase activity is measured in the cell lysates. This enzymatic measurement is carried out by measuring the appearance of a fluorigenic cleavage product (Pharmacia).

[2] = system: RS4;11 cells; details: at 1 μM, 6 hours exposure
Procedure: as §1, §2, §3

[3] = system: H146 cells; details: at 3 μM, 6 hours exposure
Procedure: as §1, §2, §3

[4] = system: H146 small-cell lung carcinoma cells; details: 100 mg/kg intra-peritoneally every day for 21 days
Procedure: The anti-tumour activity of the compounds of the invention is evaluated in a xenotransplant model of H146 small-cell lung carcinoma cells.
5×10^6 H146 cells are transplanted sub-cutaneously into immunosuppressed mice (NOD SCID strain). […] The tumour mass is measured twice a week from the commencement of treatment.

[5] = system: MV4;11; details: read-out: IC50 (concentration of compound that inhibits cell viability by 50%); MV4;11, 48 hours exposure
Procedure: (§4) The cytotoxicity studies were carried out on the three tumour lines of Example A. The cells are distributed onto microplates and exposed to the test compounds for 48 hours. The cell viability is then quantified by a colorimetric assay, the Microculture Tetrazolium Assay (Cancer Res., 1987, 47, 939-942).

[6] = system: RS4;11; details: read-out: IC50 (concentration of compound that inhibits cell viability by 50%); RS4;11, 48 hours exposure
Procedure: as §4

[7] = system: H146; details: read-out: IC50 (concentration of compound that inhibits cell viability by 50%); H146, 48 hours exposure
Procedure: as §4

Compound `CN(C)CC[C@H](CSc1ccccc1)Nc1ccc(S(=O)(=O)NC(=O)c2ccc3c(c2)CC[C@@H]2CN(Cc4ccccc4-c4ccc(Cl)cc4)CCN32)cc1[N+](=O)[O-].Cl.Cl` [Example 20] has a caspase activity [1] of 20000 IU, a caspase activity [2] of 23000 IU and a caspase activity [3] of 22000 IU. For the same compound, the “persistence of the effect after the end of treatment” value [4] was “at least 40 days”, the tumour regression [4] was “almost complete tumour regression” and the IC50 [5] was 29.5 nM. For the same compound, the IC50 [6] was 16.5 nM and the IC50 [7] was 305 nM.
